Experimental data reported in article PMC5218480 (PLoS ONE, 2017).

Tested on: MV-4-11 cells
Assay: Gene expression microarray analysis (Affymetrix PrimeView) and GSEA
Type: cell-based, human
Design: RFU PODN (11730768_x_at) / Fold change /veh PODN (11730768_x_at) / RFU LINC00158 (11744669_a_at) / Fold change /veh LINC00158 (11744669_a_at) / RFU DUSP10 (11751237_a_at) / Fold change /veh DUSP10 (11751237_a_at) / RFU ID3 (11757404_x_at) / Fold change /veh ID3 (11757404_x_at) / RFU PLEKHG5 (11737974_s_at) / Fold change /veh PLEKHG5 (11737974_s_at) / RFU LRRC4B (11730491_at) / Fold change /veh LRRC4B (11730491_at) / RFU GIMAP4 (11747438_a_at) / Fold change /veh GIMAP4 (11747438_a_at) / RFU KRT8 (11758183_x_at) / Fold change /veh KRT8 (11758183_x_at) / RFU CNN1 (11734310_a_at) / Fold change /veh CNN1 (11734310_a_at) / RFU VPS37D (11726825_at) / Fold change /veh VPS37D (11726825_at) / RFU C10orf10 (11716522_x_at) / Fold change /veh C10orf10 (11716522_x_at) / RFU KIR2DL2 /// KIR2DL4 /// KIR2DL5A /// KIR2DL5B /// KIR2DS1 /// KIR2DS2 /// KIR2DS3 /// KIR2DS4 /// KIR3DL3 /// KIR3DL3 /// KIR3DS1 (11738374_at) / Fold change /veh KIR2DL2 /// KIR2DL4 /// KIR2DL5A /// KIR2DL5B /// KIR2DS1 /// KIR2DS2 /// KIR2DS3 /// KIR2DS4 /// KIR3DL3 /// KIR3DL3 /// KIR3DS1 (11738374_at) / RFU C1QL1 (11718748_at) / Fold change /veh C1QL1 (11718748_at) / RFU TMPRSS4 (11747572_a_at) / Fold change /veh TMPRSS4 (11747572_a_at) / RFU HAMP (11756126_x_at) / Fold change /veh HAMP (11756126_x_at) / RFU RNFT2 (11725882_a_at) / Fold change /veh RNFT2 (11725882_a_at) / RFU NR4A2 (11747474_a_at) / Fold change /veh NR4A2 (11747474_a_at) / RFU ABCC12 (11746883_a_at) / Fold change /veh ABCC12 (11746883_a_at) / RFU TMEM136 (11760407_x_at) / Fold change /veh TMEM136 (11760407_x_at) / RFU CLDN22 /// WWC2 (11732394_at) / Fold change /veh CLDN22 /// WWC2 (11732394_at) / RFU HLA-DPB1 (11760878_x_at) / Fold change /veh HLA-DPB1 (11760878_x_at) / RFU SPINT1 (11716480_a_at) / Fold change /veh SPINT1 (11716480_a_at) / RFU GAP43 (11754022_s_at) / Fold change /veh GAP43 (11754022_s_at) / RFU A4GNT (11735810_at) / Fold change /veh A4GNT (11735810_at) / RFU PRB3 (11715151_x_at) / Fold change /veh PRB3 (11715151_x_at) / RFU TUBB4B (11761932_at) / Fold change /veh TUBB4B (11761932_at) / RFU CAPN14 (11732068_a_at) / Fold change /veh CAPN14 (11732068_a_at) / RFU TMCC2 (11721928_a_at) / Fold change /veh TMCC2 (11721928_a_at) / RFU IRGQ (11745062_a_at) / Fold change /veh IRGQ (11745062_a_at) / RFU FAM174B (11720279_a_at) / Fold change /veh FAM174B (11720279_a_at) / RFU TMPRSS4 (11748680_a_at) / Fold change /veh TMPRSS4 (11748680_a_at) / RFU FAM212B (11763350_a_at) / Fold change /veh FAM212B (11763350_a_at) / RFU PLEKHG5 (11743358_a_at) / Fold change /veh PLEKHG5 (11743358_a_at) / RFU ZSCAN30 (11745921_a_at) / Fold change /veh ZSCAN30 (11745921_a_at) / RFU CMKLR1 (11741424_a_at) / Fold change /veh CMKLR1 (11741424_a_at) / RFU LOC101060620 /// MAPK8IP1 (11723275_at) / Fold change /veh LOC101060620 /// MAPK8IP1 (11723275_at) / RFU SPTSSB (11747773_x_at) / Fold change /veh SPTSSB (11747773_x_at) / RFU PRSS12 (11739890_at) / Fold change /veh PRSS12 (11739890_at) / RFU BIN1 (11741810_x_at) / Fold change /veh BIN1 (11741810_x_at) / RFU WNT11 (11732464_a_at) / Fold change /veh WNT11 (11732464_a_at) / RFU C10orf10 (11716521_a_at) / Fold change /veh C10orf10 (11716521_a_at) / RFU C5orf56 (11738089_at) / Fold change /veh C5orf56 (11738089_at) / RFU CYB561 (11721691_x_at) / Fold change /veh CYB561 (11721691_x_at) / RFU ANKRD19P (11752326_a_at) / Fold change /veh ANKRD19P (11752326_a_at) / RFU OR2T12 /// OR2T33 /// OR2T8 (11738714_s_at) / Fold change /veh OR2T12 /// OR2T33 /// OR2T8 (11738714_s_at) / RFU VCAN (11748164_a_at) / Fold change /veh VCAN (11748164_a_at) / RFU JSRP1 (11732532_at) / Fold change /veh JSRP1 (11732532_at) / RFU KRTAP10-11 (11738290_x_at) / Fold change /veh KRTAP10-11 (11738290_x_at) / RFU MYO3A (11730013_a_at) / Fold change /veh MYO3A (11730013_a_at) / RFU EBF3 (11725865_a_at) / Fold change /veh EBF3 (11725865_a_at) / RFU CAMK2N1 (11719241_x_at) / Fold change /veh CAMK2N1 (11719241_x_at) / RFU C5orf56 (11738088_a_at) / Fold change /veh C5orf56 (11738088_a_at) / RFU OLFML3 (11715873_a_at) / Fold change /veh OLFML3 (11715873_a_at) / RFU LOC100653217 /// NTM (11731650_a_at) / Fold change /veh LOC100653217 /// NTM (11731650_a_at) / RFU MAPK11 (11762145_a_at) / Fold change /veh MAPK11 (11762145_a_at) / RFU FIZ1 (11724087_x_at) / Fold change /veh FIZ1 (11724087_x_at) / RFU OASL (11726364_x_at) / Fold change /veh OASL (11726364_x_at) / RFU SOX15 (11748057_x_at) / Fold change /veh SOX15 (11748057_x_at) / RFU CD79A (11719716_a_at) / Fold change /veh CD79A (11719716_a_at) / RFU HIST1H1D (11736915_at) / Fold change /veh HIST1H1D (11736915_at) / RFU CASKIN2 (11723855_a_at) / Fold change /veh CASKIN2 (11723855_a_at) / RFU LOC730098 (11760151_x_at) / Fold change /veh LOC730098 (11760151_x_at) / RFU OR4N2 (11742367_at) / Fold change /veh OR4N2 (11742367_at) / RFU PRRT2 (11749266_a_at) / Fold change /veh PRRT2 (11749266_a_at) / RFU SNX32 (11753110_a_at) / Fold change /veh SNX32 (11753110_a_at) / RFU CDHR5 (11726645_a_at) / Fold change /veh CDHR5 (11726645_a_at) / RFU RCAN1 (11760418_a_at) / Fold change /veh RCAN1 (11760418_a_at) / RFU FAM167A (11723789_a_at) / Fold change /veh FAM167A (11723789_a_at) / RFU FAM26E (11764081_at) / Fold change /veh FAM26E (11764081_at) / RFU ISYNA1 (11749810_s_at) / Fold change /veh ISYNA1 (11749810_s_at) / RFU ACY1 (11761880_at) / Fold change /veh ACY1 (11761880_at) / RFU 11764098_at / Fold change /veh 11764098_at / RFU SAMD14 (11745864_x_at) / Fold change /veh SAMD14 (11745864_x_at) / RFU NPB (11741838_a_at) / Fold change /veh NPB (11741838_a_at) / RFU TMPRSS6 (11731388_a_at) / Fold change /veh TMPRSS6 (11731388_a_at) / RFU KRTAP10-2 (11738614_at) / Fold change /veh KRTAP10-2 (11738614_at) / RFU ARHGAP8 /// PRR5-ARHGAP8 (11727945_x_at) / Fold change /veh ARHGAP8 /// PRR5-ARHGAP8 (11727945_x_at) / RFU KRTAP5-7 /// NADSYN1 (11734609_at) / Fold change /veh KRTAP5-7 /// NADSYN1 (11734609_at) / RFU RASL12 (11751679_a_at) / Fold change /veh RASL12 (11751679_a_at) / RFU CDKN2B (11736163_a_at) / Fold change /veh CDKN2B (11736163_a_at) / RFU PRF1 (11729649_at) / Fold change /veh PRF1 (11729649_at) / RFU, ZNF638 /// ZNF638-IT1 / Fold change vs veh, ZNF638 /// ZNF638-IT1 / RFU, PANK3 / Fold change vs veh, PANK3 / RFU, SH3YL1 / Fold change vs veh, SH3YL1 / RFU, ZEB2 / Fold change vs veh, ZEB2 / RFU, NRIP1 / Fold change vs veh, NRIP1 / RFU, PTTG1IP / Fold change vs veh, PTTG1IP / RFU, CAPN2 / Fold change vs veh, CAPN2 / RFU, MED14 / Fold change vs veh, MED14 / RFU, SNORA58 / Fold change vs veh, SNORA58 / RFU, C1orf63 / Fold change vs veh, C1orf63 / RFU, LRRFIP1 / Fold change vs veh, LRRFIP1 / RFU, NDUFAF7 / Fold change vs veh, NDUFAF7 / RFU, SLC12A2 / Fold change vs veh, SLC12A2 / RFU, IBTK / Fold change vs veh, IBTK / RFU, ESF1 / Fold change vs veh, ESF1 / Fold change vs veh, TMEM50B / RFU, TAOK1 / Fold change vs veh, TAOK1 / RFU, ACBD3 / Fold change vs veh, ACBD3 / RFU, TMA16 / Fold change vs veh, TMA16 / RFU, RWDD3 / Fold change vs veh, RWDD3 / RFU, BCAT1 / Fold change vs veh, BCAT1 / RFU, EDEM3 / Fold change vs veh, EDEM3 / RFU, TMEM33 / Fold change vs veh, TMEM33 / RFU, WDR75 / Fold change vs veh, WDR75 / RFU, AHCTF1 / Fold change vs veh, AHCTF1 / RFU, TFRC / Fold change vs veh, TFRC / RFU, ZDHHC17 / Fold change vs veh, ZDHHC17 / RFU, NOM1 / Fold change vs veh, NOM1 / RFU, ARL8B / Fold change vs veh, ARL8B / RFU, ZBTB11 / Fold change vs veh, ZBTB11 / RFU, TAMM41 / Fold change vs veh, TAMM41 / RFU, KIAA1704 /// LOC100996395 / Fold change vs veh, KIAA1704 /// LOC100996395 / RFU, ING1 / Fold change vs veh, ING1 / RFU, TRMT61B / Fold change vs veh, TRMT61B / RFU, FUBP3 / Fold change vs veh, FUBP3 / RFU, TP53 / Fold change vs veh, TP53 / RFU, TNKS2 / Fold change vs veh, TNKS2 / RFU, ZFP14 / Fold change vs veh, ZFP14 / RFU, ACTR2 / Fold change vs veh, ACTR2 / RFU, PPP3R1 / Fold change vs veh, PPP3R1 / RFU, PIK3R1 / Fold change vs veh, PIK3R1 / RFU, HNRNPA1 / Fold change vs veh, HNRNPA1 / RFU, RNF170 / Fold change vs veh, RNF170 / RFU, ZNF28 / Fold change vs veh, ZNF28 / RFU, RNGTT / Fold change vs veh, RNGTT / RFU, OGT / Fold change vs veh, OGT / RFU, BRD1 / Fold change vs veh, BRD1 / RFU, MARS / Fold change vs veh, MARS / RFU, ZNF655 / Fold change vs veh, ZNF655 / RFU, FAHD1 / Fold change vs veh, FAHD1 / RFU, BDP1 / Fold change vs veh, BDP1 / RFU, LRRCC1 / Fold change vs veh, LRRCC1 / RFU, ARID1A / Fold change vs veh, ARID1A / RFU, ZNF146 / Fold change vs veh, ZNF146 / RFU, ZNF330 / Fold change vs veh, ZNF330 / RFU, GPN3 / Fold change vs veh, GPN3 / RFU, C9orf123 / Fold change vs veh, C9orf123 / RFU, N4BP2L2 / Fold change vs veh, N4BP2L2 / RFU, ARFIP1 / Fold change vs veh, ARFIP1 / RFU, FAM179B / Fold change vs veh, FAM179B / RFU, BCL10 / Fold change vs veh, BCL10 / RFU, UHRF1BP1L / Fold change vs veh, UHRF1BP1L / RFU, BET1 / Fold change vs veh, BET1 / RFU, CNOT2 / Fold change vs veh, CNOT2 / RFU, ZNF268 / Fold change vs veh, ZNF268 / Fold change vs veh, ZNF507 / RFU, DGCR2 / Fold change vs veh, DGCR2 / RFU, WDSUB1 / Fold change vs veh, WDSUB1 / Fold change vs veh, HSP90B1 /// MIR3652 / RFU, ADSS / Fold change vs veh, ADSS / RFU, GK / Fold change vs veh, GK / RFU, ZNF148 / Fold change vs veh, ZNF148 / RFU, TAF9 / Fold change vs veh, TAF9 / RFU, SLC1A5 / Fold change vs veh, SLC1A5 / RFU, SLMO2 / Fold change vs veh, SLMO2 / RFU, ABCC4 / Fold change vs veh, ABCC4 / RFU, LOC101060439 /// RAP1B / Fold change vs veh, LOC101060439 /// RAP1B / RFU, RFX7 / Fold change vs veh, RFX7 / RFU, GTPBP10 / Fold change vs veh, GTPBP10 / RFU, CNEP1R1 / Fold change vs veh, CNEP1R1 / RFU, BIVM-ERCC5 /// ERCC5 / Fold change vs veh, BIVM-ERCC5 /// ERCC5 / RFU, ILF3 / Fold change vs veh, ILF3 / RFU 11762660_at / Fold change /veh 11762660_at / RFU VCAN (11757783_s_at) / Fold change /veh VCAN (11757783_s_at) / RFU DDX43 (11728927_at) / Fold change /veh DDX43 (11728927_at) / RFU KRT8 (11758188_x_at) / Fold change /veh KRT8 (11758188_x_at) / RFU NKD1 (11759106_at) / Fold change /veh NKD1 (11759106_at) / RFU SRD5A1 (11742802_a_at) / Fold change /veh SRD5A1 (11742802_a_at) / RFU TPSAB1 /// TPSB2 (11721975_s_at) / Fold change /veh TPSAB1 /// TPSB2 (11721975_s_at) / RFU GSTM3 (11746129_a_at) / Fold change /veh GSTM3 (11746129_a_at) / RFU IL23R (11737362_x_at) / Fold change /veh IL23R (11737362_x_at) / RFU TMEM51 (11727254_a_at) / Fold change /veh TMEM51 (11727254_a_at) / RFU PIWIL2 (11732686_x_at) / Fold change /veh PIWIL2 (11732686_x_at) / RFU ORM1 (11744905_x_at) / Fold change /veh ORM1 (11744905_x_at) / RFU CCDC152 (11743942_at) / Fold change /veh CCDC152 (11743942_at) / RFU ECM1 (11717891_a_at) / Fold change /veh ECM1 (11717891_a_at) / RFU IL23R (11748794_a_at) / Fold change /veh IL23R (11748794_a_at) / RFU TNFAIP8L3 (11732012_x_at) / Fold change /veh TNFAIP8L3 (11732012_x_at) / RFU MBOAT4 (11741988_at) / Fold change /veh MBOAT4 (11741988_at) / RFU 11764193_at / Fold change /veh 11764193_at / RFU TMEM53 (11763286_at) / Fold change /veh TMEM53 (11763286_at) / RFU MAGEB2 (11727129_at) / Fold change /veh MAGEB2 (11727129_at) / RFU TMEM200A (11744735_a_at) / Fold change /veh TMEM200A (11744735_a_at) / RFU CCDC152 (11751479_a_at) / Fold change /veh CCDC152 (11751479_a_at) / RFU FAM211A (11726209_a_at) / Fold change /veh FAM211A (11726209_a_at) / RFU RGS16 (11746705_a_at) / Fold change /veh RGS16 (11746705_a_at) / RFU VCAN (11755009_s_at) / Fold change /veh VCAN (11755009_s_at) / RFU RHOB (11743442_s_at) / Fold change /veh RHOB (11743442_s_at) / RFU RGS16 (11720943_a_at) / Fold change /veh RGS16 (11720943_a_at) / RFU RGS16 (11720944_at) / Fold change /veh RGS16 (11720944_at) / RFU, VPS4B / Fold change vs veh, VPS4B / RFU, CREB1 / Fold change vs veh, CREB1 / RFU, DNAJC13 / Fold change vs veh, DNAJC13 / RFU, GNAQ / Fold change vs veh, GNAQ / RFU, CDK5R1 / Fold change vs veh, CDK5R1 / RFU, ZRANB3 / Fold change vs veh, ZRANB3 / RFU, CUL4A / Fold change vs veh, CUL4A / RFU, CCNY / Fold change vs veh, CCNY / RFU, UFL1 / Fold change vs veh, UFL1 / RFU, COG3 / Fold change vs veh, COG3 / RFU, DIAPH2 / Fold change vs veh, DIAPH2 / RFU, SKA2 / Fold change vs veh, SKA2 / RFU, AFF3 / Fold change vs veh, AFF3 / RFU, LMF1 / Fold change vs veh, LMF1 / RFU, IPO11 / Fold change vs veh, IPO11 / RFU, DFFB / Fold change vs veh, DFFB / RFU, FOXP1 / Fold change vs veh, FOXP1 / RFU, CARD8 / Fold change vs veh, CARD8 / RFU, STRN3 / Fold change vs veh, STRN3 / RFU, ADK / Fold change vs veh, ADK / RFU, RASSF2 / Fold change vs veh, RASSF2 / RFU, WIPF1 / Fold change vs veh, WIPF1 / RFU, LARP1B / Fold change vs veh, LARP1B / RFU, RASA1 / Fold change vs veh, RASA1 / RFU, RB1 / Fold change vs veh, RB1 / RFU, PPFIA1 / Fold change vs veh, PPFIA1 / RFU, MAT2A / Fold change vs veh, MAT2A / RFU, CCT5 / Fold change vs veh, CCT5 / RFU, WDR92 / Fold change vs veh, WDR92 / RFU, CUX1 / Fold change vs veh, CUX1 / RFU, TTC7A / Fold change vs veh, TTC7A / RFU, TMEM135 / Fold change vs veh, TMEM135 / RFU, DEPTOR / Fold change vs veh, DEPTOR / RFU, CPM / Fold change vs veh, CPM / RFU, DNAJB6 / Fold change vs veh, DNAJB6 / RFU, CACNA2D3 / Fold change vs veh, CACNA2D3 / RFU, DTX4 / Fold change vs veh, DTX4 / RFU, TFCP2 / Fold change vs veh, TFCP2 / RFU, GMCL1 /// GMCL1P1 / Fold change vs veh, GMCL1 /// GMCL1P1 / RFU, AEBP2 / Fold change vs veh, AEBP2 / RFU, SNHG1 /// SNORD22 /// SNORD25 /// SNORD26 /// SNORD27 /// SNORD28 /// SNORD29 /// SNORD31 / Fold change vs veh, SNHG1 /// SNORD22 /// SNORD25 /// SNORD26 /// SNORD27 /// SNORD28 /// SNORD29 /// SNORD31 / Fold change (Aza/veh), C12orf56 (ProbeSet 11735607_a_at) / Fold change (ACY-1035/veh), C12orf56 (ProbeSet 11735607_a_at) / Fold change (Aza/veh), FGFR1OP (ProbeSet 11751329_s_at) / Fold change (ACY-1035/veh), FGFR1OP (ProbeSet 11751329_s_at) / Fold change (Aza/veh), VPS36 (ProbeSet 11739960_a_at) / Fold change (ACY-1035/veh), VPS36 (ProbeSet 11739960_a_at) / RFU SYPL1 (11715823_x_at) / Fold change /veh SYPL1 (11715823_x_at) / RFU IGFBP7 (11715501_s_at) / Fold change /veh IGFBP7 (11715501_s_at) / RFU REEP3 (11722064_at) / Fold change /veh REEP3 (11722064_at) / RFU IGLL1 (11728026_x_at) / Fold change /veh IGLL1 (11728026_x_at): dose or concentration left out as unconfirmed
Conditions: ProbeSet 11756954_s_at; LIST B

Nc1ncn([C@@H]2O[C@H](CO)[C@@H](O)[C@H]2O)c(=O)n1 [azacitidine]
Fold change vs veh, ZEB2: 0.83
